From patent US12201671B2, “Polypeptides for treatment of cancer” (Saint Joseph's University, priority 2019, dated 2025)
Where no end group is shown, it is not given here. The star is where a group is joined. Biotin = O=C1N[C@H]2[C@H](CS[C@H]2CCCCC(=O)*)N1

T1: ERα (Homo sapiens, UniProt P03372)
T1 sequence (P03372 1-595): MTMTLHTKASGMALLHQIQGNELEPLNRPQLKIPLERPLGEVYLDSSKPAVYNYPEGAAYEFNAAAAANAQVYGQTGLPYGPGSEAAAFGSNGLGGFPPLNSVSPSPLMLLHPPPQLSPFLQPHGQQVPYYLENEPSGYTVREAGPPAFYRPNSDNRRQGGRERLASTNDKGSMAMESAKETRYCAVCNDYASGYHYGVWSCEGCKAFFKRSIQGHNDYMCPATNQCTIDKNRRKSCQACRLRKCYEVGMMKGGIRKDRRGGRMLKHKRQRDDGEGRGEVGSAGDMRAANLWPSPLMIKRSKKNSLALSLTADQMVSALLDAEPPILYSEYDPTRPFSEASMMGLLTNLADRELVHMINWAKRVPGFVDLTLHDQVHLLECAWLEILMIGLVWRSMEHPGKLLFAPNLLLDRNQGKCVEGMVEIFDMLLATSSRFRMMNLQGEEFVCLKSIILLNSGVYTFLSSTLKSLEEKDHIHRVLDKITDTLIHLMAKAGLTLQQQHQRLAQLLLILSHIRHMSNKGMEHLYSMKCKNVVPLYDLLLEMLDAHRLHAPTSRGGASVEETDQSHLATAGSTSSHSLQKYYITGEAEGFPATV

T2: Estrogen Receptor α (Homo sapiens, UniProt P03372)
T2 sequence (P03372 1-595): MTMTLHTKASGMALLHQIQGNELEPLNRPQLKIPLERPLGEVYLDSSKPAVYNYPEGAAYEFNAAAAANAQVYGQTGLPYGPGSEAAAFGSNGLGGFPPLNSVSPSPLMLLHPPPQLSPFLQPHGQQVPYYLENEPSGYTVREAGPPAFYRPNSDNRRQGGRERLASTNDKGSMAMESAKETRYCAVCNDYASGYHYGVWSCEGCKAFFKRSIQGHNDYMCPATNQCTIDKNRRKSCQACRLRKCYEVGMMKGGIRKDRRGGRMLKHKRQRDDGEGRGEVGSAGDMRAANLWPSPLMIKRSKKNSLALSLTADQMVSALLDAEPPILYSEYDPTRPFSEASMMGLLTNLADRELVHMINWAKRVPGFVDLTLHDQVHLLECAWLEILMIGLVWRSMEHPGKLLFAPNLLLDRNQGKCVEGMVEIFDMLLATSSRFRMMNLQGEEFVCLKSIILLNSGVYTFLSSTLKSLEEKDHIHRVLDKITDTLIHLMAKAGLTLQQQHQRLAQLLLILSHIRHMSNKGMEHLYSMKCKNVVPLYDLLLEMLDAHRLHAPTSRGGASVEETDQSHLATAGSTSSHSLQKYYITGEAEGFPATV


Key:
BT549 cells [1] = assay: Apoptosis assays (Muse Caspase 3/7 and Annexin V); type: cell-based; details: BT549, 20 μM, 7 days
Method: (§1) Apoptosis was evaluated using both a Muse Caspase 3/7 kit (cat #MCH100108, EMD Millipore) and Muse Annexin V kit (Millipore cat #). Cells were treated for 7 days as described elsewhere herein, at the end of the 7 day dosing period, floating cells were collected and attached cells were washed 1× with PBS and then trypsinized with 0.05% trypsin. Cells were collected and combined with the floating cells. Cells were then counted and diluted to 20,000 cells/mL. For the caspase assay, 50 μL of cells were then incubated with the Muse Caspase 3/7 reagent at 37° C. for 30 min. After incubation 5 μL of 7-ADD dye was added and incubated for 5 min at room temperature. Cells were then analyzed on the Muse Cell Analyzer (Millipore). For the Annexin V assay, 100 μL of cells was then added to 100 μL of Annexin V reagent for 30 min at room temperature. Cells were then analyzed on the Muse Cell Analyzer (Millipore).

MDA-MB-231 cells [2] = assay: Apoptosis assays (Muse Caspase 3/7 and Annexin V); type: cell-based; details: MDA-MB-231, 20 μM, 7 days
Method: as §1

ERα = biological target: T1, ERα; assay: Inhibition of full-length recombinant CAPER binding to ERα
MCF10A cells [3] = assay: Apoptosis assay (Annexin V); type: cell-based; details: 20 μM, 7 days, vs DMSO and TAT controls
Method: as §1

c-Jun [4] = biological target: T3, c-Jun (Homo sapiens, UniProt P05412); assay: Binding kinetics by biolayer interferometry (BLI), Octet HTX; details: 1:1 model; for koff: read-out: K off, binding to c-Jun; for kon: read-out: K on, binding to c-Jun
T3 construct: purchased Abcam
Method: The binding kinetics of the peptides and full-length recombinant CAPER (R&D Systems, Minneapolis, MN) with the c-Jun (Abcam, Cambridge, MA) were determined using biolayer interferometry (BLI) on the Octet HTX system (Pall ForteBio, Fremont, CA). Amine Reactive 2nd Generation biosensors (cat #18-5092, Pall ForteBio) were activated with 1-Ethyl-3-[3-dimethylaminopropyl] carbodiimide hydrochloride and N-hydroxysulfosuccinimide (EDC/NHS) (Amine Coupling Kit II, Cat #ACK-001-025, Sierra Sensors, Billerica, MA) and conjugated with an anti-his tag antibody. The reaction was then quenched with 1M ethanolamine (Amine Coupling Kit II, Cat #ACK-001-025, Sierra Sensors). His-tagged recombinant c-Jun was then bound to the tips. The peptides were tested at a series of 2-fold dilutions including a buffer blank. The binding of full-length recombinant CAPER was also tested. Association and dissociation steps were performed for 900s each in 1×HBS-EP+ buffer (cat #BR100669, GE Healthcare Lifesciences, Pittsburgh, PA) supplemented with 450 mM NaCl (Sigma). The background was subtracted from each run and kinetics data was analyzed using ForteBio's Data Analysis Software version 10.0.3.1 using a 1:1 model.

MCF7 cells [5] = assay: Cell count after 7 day treatment with and without estradiol; type: cell-based; details: MCF7, 20 μM, 7 days, in the presence of estrogen
Method: (§2) MCF7 cells were switched to phenol free DMEM (cat #, 11054-020, Life Technologies), with 10% charcoal stripped FBS (cat #A33821-01, Life Technologies), 24 hrs prior to plating. After the starvation period, the cells were plated onto mm plates at cells/plate and allowed to adhere overnight. The next day cells were dosed with 20 μM of CAPER peptides along with a DMSO and TAT only controls with and without estradiol (E2) (cat #, Sigma). Cells were pre-treated with the peptide 4 hrs before the E2 was added. Cells were dosed daily for 7 days. At the end of the 7 day dosing period, floating cells were collected and adherent cells were trypsinized and counted via a hemocytometer

MCF7 cells [6] = assay: Apoptosis assays (Muse Caspase 3/7 and Annexin V); type: cell-based; details: MCF7, 20 μM, 7 days, in the presence of estrogen
Method: as §2, §1

MCF10A cells [7] = assay: Cell count after 7 day treatment; type: cell-based; details: MCF10A non-tumorigenic, 20 μM daily, 7 days, vs DMSO and TAT controls
Method: (§3) MDA-MB-231, BT549, and MCF10A cells were plated onto 10 cm plates at 50,000 cells per plate, 100,000 cells per plate and 25,000 cells, respectively. The cells were allowed to adhere overnight, the next day cells were with 20 μM of CAPER peptides along with a DMSO and TAT only controls. Cells were dosed daily for 7 days. At the end of the 7 day dosing period, floating cells were collected and adherent cells were trypsinized and counted via a hemocytometer.

BT549 cells [8] = assay: Cell count after 7 day treatment; type: cell-based; details: BT549, 20 μM daily, 7 days, vs DMSO and TAT controls
Method: as §3

MDA-MB-231 cells [9] = assay: Cell count after 7 day treatment; type: cell-based; details: MDA-MB-231, 20 μM daily, 7 days, vs DMSO and TAT controls
Method: as §3

BT549 cells [10] = assay: Cell cycle assay, nocodazole synchronized cells; type: cell-based; details: BT549, 20 μM, 7 days
Method: (§4) MDA-MB-231 and BT549 cells were synchronized using nocodazole (cat #Sigma-Aldrich) for 24 hours. The floating cells were then aspirated off and the plate was rinsed with media to collect the loosely attached cells (G2/M fraction). The cells were then plated as described above. A fraction of the treated cells was processed for cell cycle to confirm synchronization. Cells were then treated for 7 days as described above, at the end of the 7 day dosing period, floating cells were collected and attached cells were washed 1× with PBS and then trypsinized with 0.05% trypsin. Cells were collected and combined with the floating cells. Cells were counted and diluted according to the Muse Cell Cycle Kit (cat #MCH100106, EMD Millipore) instructions and samples were then read on the Muse Cell Analyzer.

MDA-MB-231 cells [11] = assay: Cell cycle assay, nocodazole synchronized cells; type: cell-based; details: MDA-MB-231, 20 μM, 7 days
Method: as §4

Estrogen Receptor α = biological target: T2, Estrogen Receptor α; assay: Binding kinetics (BLI) to Estrogen Receptor α; details: for koff: read-out: K off, binding to Estrogen Receptor α; for kon: read-out: K on, binding to Estrogen Receptor α
c-Jun [12] = biological target: T3, c-Jun; assay: BLI competition assay: full-length CAPER binding to peptide-saturated c-Jun; details: c-Jun saturated with peptide at 10x KD; compared to CAPER binding without peptide
Method: Competition assays were determined using BLI on the Octet HTX system (Pall ForteBio, Fremont, CA). Amine Reactive 2nd Generation biosensors (cat #18-5092, Pall ForteBio) were activated with 1-Ethyl-3-[3-dimethylaminopropyl] carbodiimide hydrochloride and N-hydroxysulfosuccinimide (EDC/NHS) (Amine Coupling Kit II, Cat #ACK-001-025, Sierra Sensors, Billerica, MA) and conjugated with an anti-his tag antibody. The reaction was then quenched with 1M ethanolamine (Amine Coupling Kit II, Cat #ACK-001-025, Sierra Sensors). Recombinant c-Jun containing a his-tag was then bound to the tips. The peptides were allowed to saturate the receptor at a concentration of 10× the KD of each peptide. After receptor saturation binding of full-length CAPER to the receptor was measured and the signal was compared back to full-length CAPER binding to the receptor in the absence of the peptide. Binding steps were performed for 900s each in 1× HBS-EP+ buffer (cat #BR100669, GE Healthcare Lifesciences, Pittsburgh, PA) supplemented with 450 mM NaCl (Sigma). The background was subtracted from each run and the signal was represented as a % inhibition compared to full-length CAPER binding in the absence of the peptide.

[13] = his-tagged c-Jun on anti-his tips

T3 sequence (P05412 whole entry): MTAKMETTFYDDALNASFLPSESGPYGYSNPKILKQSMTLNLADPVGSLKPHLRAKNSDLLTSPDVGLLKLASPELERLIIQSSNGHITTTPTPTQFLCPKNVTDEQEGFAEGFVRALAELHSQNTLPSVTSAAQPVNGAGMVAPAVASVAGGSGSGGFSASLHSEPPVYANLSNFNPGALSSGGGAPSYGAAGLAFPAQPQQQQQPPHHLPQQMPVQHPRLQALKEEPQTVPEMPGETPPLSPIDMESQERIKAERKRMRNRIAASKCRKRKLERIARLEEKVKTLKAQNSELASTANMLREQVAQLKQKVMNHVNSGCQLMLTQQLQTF

Binding of full-length recombinant CAPER to ERα (ERα)	koff (c-Jun [4]) [s⁻¹]	kon (c-Jun [4]) [M⁻¹ s⁻¹]	koff (Estrogen Receptor α) [s⁻¹]	kon (Estrogen Receptor α) [M⁻¹ s⁻¹]	Molecule	Early apoptotic and apoptotic dead cells (BT549 cells [1])	Live cells (BT549 cells [1])	Early apoptotic and apoptotic dead cells (MDA-MB-231 cells [2])	Live cells (MDA-MB-231 cells [2])	Apoptotic cells (MCF10A cells [3])	Cell number (MCF7 cells [5])	Early apoptotic and apoptotic dead cells (MCF7 cells [6])	Live cells (MCF7 cells [6])	Cell count (MCF10A cells [7])	Cell number (BT549 cells [8])	Cell number (MDA-MB-231 cells [9])	Effect on cell cycle (BT549 cells [10])	Effect on cell cycle (MDA-MB-231 cells [11])	KD, binding to c-Jun (c-Jun [4]; [13])	other results
alter the binding	0.000337	37900	0.000115	25400	Biotin-RLQLMARLAEGTGLQIPPAAQQALQMSGSLAFGAVADLQTRLSQQ (N-terminus assumed) [CAPER peptide HCC1.3]	significant increase	significant decrease	significant increase	significant decrease	no significant change	significant decrease	significant increase	significant decrease	no significant change	significant decrease	significant decrease	no effect	no effect		
alter the binding	0.00098	38300	0.00172	57100	Biotin-RLQLMARLAEGTGLQIPPAAQQALQMSGSLAFGAVAEFSFVIDLQ (N-terminus assumed) [CAPER peptide HCC1.4]	significant increase	significant decrease	significant increase	significant decrease	no significant change	significant decrease	significant increase	significant decrease	no significant change	significant decrease	significant decrease	no effect	no effect		
					VGDALQGLRLFSTQASIGAQMEQLAAQPLRAGQMLQLAQASPLRT [CAPER scrambled peptide, scrambled control peptide, reference compound]														could not be determined	Inhibition of full-length recombinant CAPER binding to c-Jun (c-Jun [12]): no significant change
					YGRKKRRQRRR [TAT only control, reference compound]														could not be determined	
					Recombinant Full-Length CAPER HCC1.3: full-length recombinant CAPER (R&D Systems), isoform HCC1.3 (protein) MADDIDIEAMLEAPYKKDENKLSSANGHEERSKKRKKSKSRSRSHERKRSKSKERKRSRDRERKKSKSRERKRSRSKERRRSRSRSRDRRFRGRYRSPYSGPKFNSAIRGKIGLPHSIKLSRRRSRSKSPFRKDKSPVREPIDNLTPEERDARTVFCMQLAARIRPRDLEEFFSTVGKVRDVRMISDRNSRRSKGIAYVEFVDVSSVPLAIGLTGQRVLGVPIIVQASQAEKNRAAAMANNLQKGSAGPMRLYVGSLHFNITEDMLRGIFEPFGRIESIQLMMDSETGRSKGYGFITFSDSECAKKALEQLNGFELAGRPMKVGHVTERTDASSASSFLDSDELERTGIDLGTTGRLQLMARLAEGTGLQIPPAAQQALQMSGSLAFGAVADLQTRLSQQTEASALAAAASVQPLATQCFQLSNMFNPQTEEEVGWDTEIKDDVIEECNKHGGVIHIYVDKNSAQGNVYVKCPSIAAAIAAVNALHGRWFAGKMITAAYVPLPTYHNLFPDSMTATQLLVPSRR															K off, binding to c-Jun (c-Jun [4]): 5.66e-05 s⁻¹; K on, binding to c-Jun (c-Jun [4]): 312000 M⁻¹ s⁻¹; Kd (c-Jun [4]; [13]): 0.18 nM; K off, binding to Estrogen Receptor α (Estrogen Receptor α): 2.34e-05 s⁻¹; K on, binding to Estrogen Receptor α (Estrogen Receptor α): 937000 M⁻¹ s⁻¹
